Reference: patent US20090012085A1, “DOSAGE FORMS AND METHODS OF TREATMENT USING A TYROSINE KINASE INHIBITOR” (priority 2005, published 2009)
Read-outs that look alike come from different tables or passages of the source.

Assay: Phase I dose-escalating study, plasma pharmacokinetics in patients with solid tumor
Type: in vivo, human
Conditions: for Tmax: read-out: tmax, mean (% CV); for concentration at 4 h: nominal time 4 h; for concentration at 12 h: nominal time 12 h; for accumulation of the drug with continuous dosing: plasma exposures on Day 28 of dosing, compared to 4/1 schedule
Experimental: Cmax values, or maximum total plasma concentrations, of a compound of formula 1 can be measured according to techniques well known to those skilled in the art. For example, after a compound of formula 1 has been administered to a mammal, blood samples can be taken at fixed time points over a period of time (e.g. 24 hours) and the serum or plasma concentration of compound of formula 1 can be measured using standard analytical techniques known in the art. In vivo determinations Cmax can then be made by plotting the serum or plasma concentration of compound of formula 1 along the ordinate (y-axis) against time along the abscissa (x-axis).
The maleate salt of compound 1 was administered to human patients with solid tumor malignancies not amenable to conventional therapies in a Phase I dose-escalating multicenter study. The types of tumor malignancies included colorectal carcinoma, renal cell carcinoma, esophageal carcinoma, thymus carcinoma, mastocytosis, lung cancer and multiple endocrine neoplasia type II. Patients were treated in cohorts of 6 with escalating QD (once per day) doses of the maleate salt of compound 1 under fasting conditions. Each study cycle of 5 weeks consisted of 4 weeks of treatment followed by 1 week of rest (4/1 schedule), or continuous dosing without any rest period.
Full pharmacokinetic profiles were collected on Cycle 1 Day 1 (C1D1), Cycle 1 Day 28 (C1D28), and Cycle 2 Day 28 (C2D28). Preliminary pharmacokinetic parameters for the first 44 patients, i.e. the first 7 dosing groups, were estimated using nominal collection times and quality-controlled, non-quality assured bioanalytical data. The dosage amounts in Table 1A and Table 1B are free base equivalent amounts.

Structure (SMILES): Cc1[nH]c(/C=C2\C(=O)Nc3ccc(F)cc32)c(C)c1C(=O)NC[C@H](O)CN1CCOCC1 [compound 1, 5-[(Z)-(5-fluoro-2-oxo-1,2-dihydro-3H-indol-3-ylidene)methyl]-N-[(2S)-2-hydroxy-3-morpholin-4-ylpropyl]-2,4-dimethyl-1H-pyrrole-3-carboxamide]
- half-life (human, plasma, 200 mg, 200 mg QD (4/1), C1D1 (n = 6), plasma, read-out: t½, mean (% CV) (converted)): 18.8 h
- AUC(0-t) (human, plasma, 200 mg, 200 mg QD (4/1), C1D28 (n = 5), plasma, read-out: AUC(0-24), mean (% CV)): 8210 ng·h/mL
- concentration at 24 h (human, plasma, 200 mg, 200 mg QD (4/1), C1D28 (n = 5), plasma, read-out: C(trough, 24 h), mean (% CV)): 259 ng/mL
- Cmax (human, plasma, 200 mg, 200 mg QD (4/1), C1D28 (n = 5), plasma, read-out: Cmax, mean (% CV)): 561 ng/mL
- Tmax (human, plasma, 200 mg, 200 mg QD (4/1), C1D28 (n = 5), plasma): 6.6 h
- half-life (human, plasma, 200 mg, 200 mg QD (4/1), C1D28 (n = 5), plasma, read-out: t½, mean (% CV) (converted)): 26.9 h
- AUC(0-t) (human, plasma, 200 mg, 200 mg QD (4/1), C2D28 (n = 5), plasma, read-out: AUC(0-24), mean (% CV)): 6270 ng·h/mL
- concentration at 24 h (human, plasma, 200 mg, 200 mg QD (4/1), C2D28 (n = 5), plasma, read-out: C(trough, 24 h), mean (% CV)): 211 ng/mL
- Cmax (human, plasma, 200 mg, 200 mg QD (4/1), C2D28 (n = 5), plasma, read-out: Cmax, mean (% CV)): 375 ng/mL
- Tmax (human, plasma, 200 mg, 200 mg QD (4/1), C2D28 (n = 5), plasma): 5.6 h
- half-life (human, plasma, 200 mg, 200 mg QD (4/1), C2D28 (n = 5), plasma, read-out: t½, mean (% CV) (converted)): 15.3 h
- concentration at 3 h (human, plasma, 250 mg QD, 250 mg QD 4/1 (n = 6), nominal time 3 h, read-out: Mean plasma concentration following the last dose on cycle 1 day 28): 250 ng/mL
- concentration at 4 h (human, plasma, 250 mg QD, 250 mg QD 4/1 (n = 6), read-out: Mean plasma concentration following the last dose on cycle 1 day 28): 200 ng/mL
- concentration at 6 h (human, plasma, 250 mg QD, 250 mg QD 4/1 (n = 6), nominal time 6 h, read-out: Mean plasma concentration following the last dose on cycle 1 day 28): 157 ng/mL
- concentration at 8 h (human, plasma, 250 mg QD, 250 mg QD 4/1 (n = 6), nominal time 8 h, read-out: Mean plasma concentration following the last dose on cycle 1 day 28): 161 ng/mL
- concentration at 10 h (human, plasma, 250 mg QD, 250 mg QD 4/1 (n = 6), nominal time 10 h, read-out: Mean plasma concentration following the last dose on cycle 1 day 28): 141 ng/mL
- concentration at 0 h (human, plasma, 250 mg, 250 mg QD 4/1 (n = 6), nominal time 0 h, read-out: Mean plasma concentration following the last dose on cycle 1 day 28): 64.5 ng/mL
- concentration at 1 h (human, plasma, 250 mg, 250 mg QD 4/1 (n = 6), nominal time 1 h, read-out: Mean plasma concentration following the last dose on cycle 1 day 28): 107 ng/mL
- concentration at 2 h (human, plasma, 250 mg, 250 mg QD 4/1 (n = 6), nominal time 2 h, read-out: Mean plasma concentration following the last dose on cycle 1 day 28): 177 ng/mL
- concentration at 20 h (human, plasma, 250 mg, 250 mg QD 4/1 (n = 6), nominal time 20 h, read-out: Mean plasma concentration following the last dose on cycle 1 day 28): 53.6 ng/mL
- concentration at 24 h (human, plasma, 250 mg, 250 mg QD 4/1 (n = 6), nominal time 24 h, read-out: Mean plasma concentration following the last dose on cycle 1 day 28): 63 ng/mL
- AUC(0-t) (human, plasma, 250 mg, 250 mg QD (4/1), C1D1 (n = 6), plasma, read-out: AUC(0-24), mean (% CV)): 7580 ng·h/mL
- concentration at 24 h (human, plasma, 250 mg, 250 mg QD (4/1), C1D1 (n = 6), plasma, read-out: C(trough, 24 h), mean (% CV)): 143 ng/mL
- Cmax (human, plasma, 250 mg, 250 mg QD (4/1), C1D1 (n = 6), plasma, read-out: Cmax, mean (% CV)): 848 ng/mL
- Tmax (human, plasma, 250 mg, 250 mg QD (4/1), C1D1 (n = 6), plasma): 3.7 h
- half-life (human, plasma, 250 mg, 250 mg QD (4/1), C1D1 (n = 6), plasma, read-out: t½, mean (% CV) (converted)): 11.5 h
- AUC(0-t) (human, plasma, 250 mg, 250 mg QD (4/1), C1D28 (n = 4), plasma, read-out: AUC(0-24), mean (% CV)): 9810 ng·h/mL
- concentration at 24 h (human, plasma, 250 mg, 250 mg QD (4/1), C1D28 (n = 4), plasma, read-out: C(trough, 24 h), mean (% CV)): 246 ng/mL
- Cmax (human, plasma, 250 mg, 250 mg QD (4/1), C1D28 (n = 4), plasma, read-out: Cmax, mean (% CV)): 734 ng/mL
- Tmax (human, plasma, 250 mg, 250 mg QD (4/1), C1D28 (n = 4), plasma): 4.5 h
- half-life (human, plasma, 250 mg, 250 mg QD (4/1), C1D28 (n = 4), plasma, read-out: t½, mean (% CV) (converted)): 22.4 h
- concentration at 24 h (human, plasma, 250 mg, 250 mg QD (4/1), C2D28 (n = 4), plasma, read-out: C(trough, 24 h), mean (% CV)): 279 ng/mL
- Cmax (human, plasma, 250 mg, 250 mg QD (4/1), C2D28 (n = 4), plasma, read-out: Cmax, mean (% CV)): 748 ng/mL
- Tmax (human, plasma, 250 mg, 250 mg QD (4/1), C2D28 (n = 4), plasma): 5.5 h
- half-life (human, plasma, 250 mg, 250 mg QD (4/1), C2D28 (n = 4), plasma, read-out: t½, mean (% CV) (converted)): 13.2 h
- half-life (human, plasma, 4/1 schedule, blood samples for 144 hours after the last dose on Day 28, across the dose groups, read-out: longer t1/2, mean estimates): 13.2 to 26.9 h
- half-life (human, plasma, C1D1, across dose groups, read-out: mean terminal plasma half-life (t1/2) over 24 hours after dosing): 10.8 to 18.8 h
- concentration at 12 h (human, plasma, oral, 25 mg QD, 25 mg QD 4/1 (n = 6), read-out: Mean plasma concentration following the last dose on cycle 1 day 28): 30.1 ng/mL
- concentration at 4 h (human, plasma, oral, 25 mg, 25 mg QD 4/1 (n = 6), read-out: Mean plasma concentration following the last dose on cycle 1 day 28): 58.3 ng/mL
- AUC(0-t) (human, plasma, oral, 25 mg, 25 mg QD (4/1), C2D28 (n = 5), plasma, read-out: AUC(0-24), mean (% CV)): 794 ng·h/mL
- concentration at 24 h (human, plasma, oral, 25 mg, 25 mg QD (4/1), C2D28 (n = 5), plasma, read-out: C(trough, 24 h), mean (% CV)): 21.4 ng/mL
- AUC(0-t) (human, plasma, oral, 25 mg, one patient excluded from the mean, 25 mg QD 4/1, C2D28, read-out: AUC(0-24)): 7000 ng·h/mL
- Cmax (human, plasma, oral, 25 mg, one patient excluded from the mean, 25 mg QD 4/1, C2D28, read-out: Cmax): 394 ng/mL
- concentration at 12 h (human, plasma, oral, 50 mg QD, 50 mg QD 4/1 (n = 5), read-out: Mean plasma concentration following the last dose on cycle 1 day 28): 50.4 ng/mL
- concentration at 4 h (human, plasma, oral, 50 mg, 50 mg QD 4/1 (n = 5), read-out: Mean plasma concentration following the last dose on cycle 1 day 28): 81.1 ng/mL
- concentration at 12 h (human, plasma, oral, 100 mg QD, 100 mg QD 4/1 (n = 6), read-out: Mean plasma concentration following the last dose on cycle 1 day 28): 204 ng/mL
- concentration at 12 h (human, plasma, oral, 100 mg, 100 mg QD Continuous (n = 4), read-out: Mean plasma concentration following the last dose on cycle 1 day 28): 377 ng/mL
- concentration at 12 h (human, plasma, oral, 150 mg QD, 150 mg QD 4/1 (n = 5), read-out: Mean plasma concentration following the last dose on cycle 1 day 28): 91.3 ng/mL
- concentration at 4 h (human, plasma, oral, 150 mg, 150 mg QD 4/1 (n = 5), read-out: Mean plasma concentration following the last dose on cycle 1 day 28): 231 ng/mL
- concentration at 12 h (human, plasma, oral, 150 mg, 150 mg QD Continuous (n = 6), read-out: Mean plasma concentration following the last dose on cycle 1 day 28): 465 ng/mL
- concentration at 12 h (human, plasma, oral, 200 mg, 200 mg QD 4/1 (n = 5), read-out: Mean plasma concentration following the last dose on cycle 1 day 28): 355 ng/mL
- concentration at 12 h (human, plasma, oral, 250 mg, 250 mg QD 4/1 (n = 6), read-out: Mean plasma concentration following the last dose on cycle 1 day 28): 130 ng/mL
- AUC(0-t) (human, plasma, oral, 250 mg, 250 mg QD (4/1), C2D28 (n = 4), plasma, read-out: AUC(0-24), mean (% CV)): 9770 ng·h/mL
- half-life (human, plasma, oral, patients with solid tumors, read-out: effective t1/2 of elimination from plasma): 11 to 19 h
- concentration at 1 week (human, extrapolating beyond the measured plasma concentrations at 144 hours, rest period after the last dose of Cycle 1, read-out: concentration prior to the start of dosing in the following cycle): < 5 ng/mL
- higher exposures on C2D28 compared with C1D28 (one patient excluded from the mean, 25 mg QD 4/1): approximately 5 fold
- accumulation of the drug with continuous dosing: no unexpected accumulation
- accumulation of the drug with continuous dosing (listed as compound of formula 1): no unexpected drug accumulation
